Source: the NIST ThermoML archive (doi:10.1016/j.tca.2012.05.025)

Assay: xn = mol fraction of the nth substance listed
Settings: for surface tension liquid-gas: roughened platinum plate-detachment; for viscosity / mass density: 101 kPa, Liquid; for viscosity: Capillary tube (Ostwald / Ubbelohde) method; for mass density: Vibrating tube method

CN(C)CCCO [3-dimethylamino-1-propanol] + O
Settings | mass density [kg/m3] | surface tension liquid-gas [mN/m] | viscosity [mPa·s]
298.15 K, x1 = 0.0979 | – | 36.93 | –
298.15 K, x1 = 0.1002 | 978.93 | – | 6.617
298.15 K, x1 = 0.1971 | – | 35.21 | –
298.15 K, x1 = 0.201 | 960.36 | – | 14
298.15 K, x1 = 0.2927 | – | 33.39 | –
298.15 K, x1 = 0.297 | 943.21 | – | 19.6
298.15 K, x1 = 0.3979 | – | 32.02 | –
298.15 K, x1 = 0.4001 | 929.16 | – | 20.8
298.15 K, x1 = 0.4996 | – | 31.04 | –
298.15 K, x1 = 0.5013 | 917.07 | – | 19.5
298.15 K, x1 = 0.5975 | – | 30.56 | –
298.15 K, x1 = 0.6019 | 907.19 | – | 15.1
298.15 K, x1 = 0.6939 | 899.28 | – | 12.3
298.15 K, x1 = 0.6998 | – | 29.87 | –
298.15 K, x1 = 0.7946 | – | 29.33 | –
298.15 K, x1 = 0.8006 | 891.51 | – | 9.402
298.15 K, x1 = 0.8989 | 885.51 | – | 7.474
298.15 K, x1 = 0.8997 | – | 28.22 | –
298.15 K, x1 = 1 | 880.25 | 29.01 | 5.839
303.15 K, x1 = 0.0979 | – | 34.56 | –
303.15 K, x1 = 0.1002 | 975.53 | – | 5.319
303.15 K, x1 = 0.1971 | – | 34.17 | –
303.15 K, x1 = 0.201 | 956.53 | – | 10.8
303.15 K, x1 = 0.2927 | – | 31.4 | –
303.15 K, x1 = 0.297 | 939.37 | – | 14.4
303.15 K, x1 = 0.3979 | – | 31.61 | –
303.15 K, x1 = 0.4001 | 925.16 | – | 15.9
303.15 K, x1 = 0.4996 | – | 30.59 | –
303.15 K, x1 = 0.5013 | 913.1 | – | 15.6
303.15 K, x1 = 0.5975 | – | 29.91 | –
303.15 K, x1 = 0.6019 | 903.25 | – | 11.9
303.15 K, x1 = 0.6939 | 895.35 | – | 9.94
303.15 K, x1 = 0.6998 | – | 29.34 | –
303.15 K, x1 = 0.7946 | – | 28.87 | –
303.15 K, x1 = 0.8006 | 887.57 | – | 7.954
303.15 K, x1 = 0.8989 | 881.52 | – | 6.226
303.15 K, x1 = 0.8997 | – | 27.64 | –
303.15 K, x1 = 1 | 876.46 | 29.28 | 4.963
308.15 K, x1 = 0.0979 | – | 32.51 | –
308.15 K, x1 = 0.1971 | – | 32.13 | –
308.15 K, x1 = 0.2927 | – | 30.61 | –
308.15 K, x1 = 0.3979 | – | 30.51 | –
308.15 K, x1 = 0.4996 | – | 30.2 | –
308.15 K, x1 = 0.5975 | – | 29.3 | –
308.15 K, x1 = 0.6998 | – | 28.72 | –
308.15 K, x1 = 0.7946 | – | 28.45 | –
308.15 K, x1 = 0.8997 | – | 26.42 | –
308.15 K, x1 = 1 | – | 28.88 | –
313.15 K, x1 = 0.0979 | – | 32.02 | –
313.15 K, x1 = 0.1002 | 968.53 | – | 3.808
313.15 K, x1 = 0.1971 | – | 31.26 | –
313.15 K, x1 = 0.201 | 948.48 | – | 7.433
313.15 K, x1 = 0.2927 | – | 29.79 | –
313.15 K, x1 = 0.297 | 931.17 | – | 10.2
313.15 K, x1 = 0.3979 | – | 30.12 | –
313.15 K, x1 = 0.4001 | 916.99 | – | 11
313.15 K, x1 = 0.4996 | – | 29.33 | –
313.15 K, x1 = 0.5013 | 905.01 | – | 10.7
313.15 K, x1 = 0.5975 | – | 28.76 | –
313.15 K, x1 = 0.6019 | 895.21 | – | 8.899
313.15 K, x1 = 0.6939 | 887.38 | – | 7.649
313.15 K, x1 = 0.6998 | – | 28.23 | –
313.15 K, x1 = 0.7946 | – | 27.82 | –
313.15 K, x1 = 0.8006 | 879.6 | – | 6.319
313.15 K, x1 = 0.8989 | 873.52 | – | 5.192
313.15 K, x1 = 0.8997 | – | 26.23 | –
313.15 K, x1 = 1 | 868.42 | 28.47 | 4.266
318.15 K, x1 = 0.0979 | – | 30.72 | –
318.15 K, x1 = 0.1971 | – | 29.83 | –
318.15 K, x1 = 0.2927 | – | 28.55 | –
318.15 K, x1 = 0.3979 | – | 29.78 | –
318.15 K, x1 = 0.4996 | – | 28.69 | –
318.15 K, x1 = 0.5975 | – | 28.51 | –
318.15 K, x1 = 0.6998 | – | 27.87 | –
318.15 K, x1 = 0.7946 | – | 27.54 | –
318.15 K, x1 = 0.8997 | – | 25.6 | –
318.15 K, x1 = 1 | – | 28.13 | –
323.15 K, x1 = 0.0979 | – | 28.2 | –
323.15 K, x1 = 0.1002 | 961.28 | – | 2.743
323.15 K, x1 = 0.1971 | – | 29.54 | –
323.15 K, x1 = 0.201 | 940.25 | – | 4.975
323.15 K, x1 = 0.2927 | – | 28.28 | –
323.15 K, x1 = 0.297 | 922.77 | – | 6.606
323.15 K, x1 = 0.3979 | – | 28.91 | –
323.15 K, x1 = 0.4001 | 908.62 | – | 7.162
323.15 K, x1 = 0.4996 | – | 28.65 | –
323.15 K, x1 = 0.5013 | 896.72 | – | 7.031
323.15 K, x1 = 0.5975 | – | 27.57 | –
323.15 K, x1 = 0.6019 | 887.02 | – | 6.036
323.15 K, x1 = 0.6939 | 879.25 | – | 5.28
323.15 K, x1 = 0.6998 | – | 27.36 | –
323.15 K, x1 = 0.7946 | – | 27.1 | –
323.15 K, x1 = 0.8006 | 871.47 | – | 4.526
323.15 K, x1 = 0.8989 | 865.41 | – | 3.848
323.15 K, x1 = 0.8997 | – | 25.43 | –
323.15 K, x1 = 1 | 860.29 | 27.63 | 3.253
333.15 K, x1 = 0.0979 | – | 26.75 | –
333.15 K, x1 = 0.1002 | 953.71 | – | 2.169
333.15 K, x1 = 0.1971 | – | 28.32 | –
333.15 K, x1 = 0.201 | 931.78 | – | 3.514
333.15 K, x1 = 0.2927 | – | 27.56 | –
333.15 K, x1 = 0.297 | 914.15 | – | 4.536
333.15 K, x1 = 0.3979 | – | 27.91 | –
333.15 K, x1 = 0.4001 | 900.04 | – | 4.707
333.15 K, x1 = 0.4996 | – | 27.54 | –
333.15 K, x1 = 0.5013 | 888.25 | – | 4.797
333.15 K, x1 = 0.5975 | – | 26.74 | –
333.15 K, x1 = 0.6019 | 878.64 | – | 4.286
333.15 K, x1 = 0.6939 | 870.93 | – | 3.831
333.15 K, x1 = 0.6998 | – | 26.36 | –
333.15 K, x1 = 0.7946 | – | 26.32 | –
333.15 K, x1 = 0.8006 | 863.22 | – | 3.369
333.15 K, x1 = 0.8989 | 857.19 | – | 2.94
333.15 K, x1 = 0.8997 | – | 24.76 | –
333.15 K, x1 = 1 | 852.1 | 26.81 | 2.768
343.15 K, x1 = 0.1002 | 945.85 | – | 1.686
343.15 K, x1 = 0.201 | 923.1 | – | 2.575
343.15 K, x1 = 0.297 | 905.31 | – | 3.262
343.15 K, x1 = 0.4001 | 891.27 | – | 3.498
343.15 K, x1 = 0.5013 | 879.56 | – | 3.428
343.15 K, x1 = 0.6019 | 870.06 | – | 3.147
343.15 K, x1 = 0.6939 | 862.44 | – | 2.861
343.15 K, x1 = 0.8006 | 854.81 | – | 2.579
343.15 K, x1 = 0.8989 | 848.84 | – | 2.322
343.15 K, x1 = 1 | 843.77 | – | 2.03
